From US10968178B2, “IP6K inhibitors” (TAKEDA PHARMACEUTICAL COMPANY LIMITED, priority 2017, dated 2021) come the findings set out here.

Format in all cases: biochemical
The target in one assay is T1, human IP6K2 (Homo sapiens, UniProt Q9UHH9).
T1 construct: human IP6K2 (1-426) gene; GST; made in house; host or cells: Sf-9 insect cells
T1 sequence (Q9UHH9 1-426): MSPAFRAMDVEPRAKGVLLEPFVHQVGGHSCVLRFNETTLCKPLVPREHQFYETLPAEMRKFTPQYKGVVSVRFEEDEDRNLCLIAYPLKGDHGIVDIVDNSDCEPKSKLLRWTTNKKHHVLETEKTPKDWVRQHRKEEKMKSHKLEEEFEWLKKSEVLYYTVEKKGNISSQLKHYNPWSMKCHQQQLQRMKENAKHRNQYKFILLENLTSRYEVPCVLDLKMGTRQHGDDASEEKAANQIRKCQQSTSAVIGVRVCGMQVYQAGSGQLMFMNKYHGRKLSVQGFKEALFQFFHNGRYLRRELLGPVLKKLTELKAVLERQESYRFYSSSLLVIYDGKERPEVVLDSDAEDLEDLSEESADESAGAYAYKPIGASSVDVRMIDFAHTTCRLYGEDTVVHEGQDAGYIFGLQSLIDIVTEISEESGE
The assay can be described thus: IP6K enzyme inhibitory assay (ADP-Glo Kinase Assay), human IP6K2. The following applies: compound concentration 0.1 μM; read-out: ADP-Glo method inhibitory rate (%) human IP6K2. How it is done: (§1) IP6K Enzyme Inhibitory Assay
(§2) Human IP6K3 enzyme was prepared by transducing human IP6K3 (1-410) gene into BL21 (DE3) Escherichia coli and purifying by Ni-NTA (nickel-nitrilotriacetic acid) affinity column. […] The enzymes were used after preservation at −70° C. The IP6K enzyme inhibitory activity of the test compound was measured by the following experiment method and using ADP-Glo™ Kinase Assay (manufactured by Promega). A test compound diluted with an assay buffer (20 mM HEPES (pH 7.5), 6 mM MgCl2, 0.01% Tween-20, 1 mM DTT) was first added by 2 μL to a 384 well plate. […] The IP6K enzyme solution diluted with the assay buffer was added by 2 μL to start the enzyme reaction. Incubation was performed at room temperature for a given time (120 min for rat IP6K3 alone, 60 min for others). After incubation at room temperature, ADP-Glo solution prepared according to the protocol of Promega was added by 3 μL to the 384 well plate and reacted at room temperature for 30 min. Thereafter, Kinase-Detection solution was added by 6 μL to the 384 well plate and reacted at room temperature for 60 min. After the reaction, the luminescence intensity was measured by a plate reader Envision (manufactured by PerkinElmer).
(In general: ADP-Glo turns the ADP formed in a reaction into a luminescent signal.)

The target of the next assay is T2, human IP6K3 (Homo sapiens, UniProt Q96PC2).
T2 construct: human IP6K3 (1-410) gene; made in house; host or cells: BL21 (DE3) Escherichia coli
T2 sequence (Q96PC2 1-410): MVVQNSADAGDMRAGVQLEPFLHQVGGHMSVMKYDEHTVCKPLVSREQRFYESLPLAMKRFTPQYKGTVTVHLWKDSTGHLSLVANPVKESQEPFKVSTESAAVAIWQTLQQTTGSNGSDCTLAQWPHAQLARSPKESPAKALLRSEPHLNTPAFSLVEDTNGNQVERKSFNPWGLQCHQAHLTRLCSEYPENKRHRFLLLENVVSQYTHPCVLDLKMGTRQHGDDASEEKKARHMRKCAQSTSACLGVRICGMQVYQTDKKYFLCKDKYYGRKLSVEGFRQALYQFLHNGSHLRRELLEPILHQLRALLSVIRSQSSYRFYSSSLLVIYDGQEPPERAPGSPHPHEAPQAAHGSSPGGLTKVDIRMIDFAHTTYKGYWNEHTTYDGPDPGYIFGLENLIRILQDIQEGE
Put plainly: IP6K enzyme inhibitory assay (ADP-Glo Kinase Assay), human IP6K3. The conditions noted are these: compound concentration 0.1 μM; read-out: ADP-Glo method inhibitory rate (%) human IP6K3. How it is done: as §1, §2

The target of another assay is T3, human IP6K1 (Homo sapiens, UniProt Q92551).
T3 construct: human IP6K1 (1-441) gene; GST; made in house; host or cells: Sf-9 insect cells
T3 sequence (Q92551 whole entry): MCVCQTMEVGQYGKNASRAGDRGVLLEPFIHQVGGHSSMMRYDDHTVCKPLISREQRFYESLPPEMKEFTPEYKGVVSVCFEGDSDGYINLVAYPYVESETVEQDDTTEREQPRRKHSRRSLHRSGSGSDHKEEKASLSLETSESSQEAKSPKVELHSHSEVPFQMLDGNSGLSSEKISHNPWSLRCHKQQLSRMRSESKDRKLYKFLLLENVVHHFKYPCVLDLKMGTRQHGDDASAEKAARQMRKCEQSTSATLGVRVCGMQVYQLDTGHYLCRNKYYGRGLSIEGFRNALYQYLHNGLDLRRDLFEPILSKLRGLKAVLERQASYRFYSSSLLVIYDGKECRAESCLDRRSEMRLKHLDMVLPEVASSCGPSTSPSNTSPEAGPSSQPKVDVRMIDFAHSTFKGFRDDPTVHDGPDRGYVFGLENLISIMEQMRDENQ
Put plainly: IP6K enzyme inhibitory assay (ADP-Glo Kinase Assay), human IP6K1. The conditions noted are these: compound concentration 0.1 μM; read-out: ADP-Glo method inhibitory rate (%) human IP6K1. How it is done:
as §1, §2

For the compound `O=C(O)c1ccc2c(c1)[C@]1(CC[C@@H](Oc3ccc(F)cc3)CC1)C(=O)N2` [Example 2], the inhibition at 0.1 µM turned out to be 94% at human IP6K2, 100% on human IP6K3 and 101% on human IP6K1.

As to `O=C(O)c1ccc2c(c1)[C@]1(CC[C@@H](Oc3ccc(F)cc3F)CC1)C(=O)N2` [Example 57, (1r,4r)-4-(2,4-difluorophenoxy)-2′-oxo-1′,2′-dihydrospiro[cyclohexane-1,3′-indole]-5′-carboxylic acid], the inhibition at 0.1 µM at human IP6K2 was found to be 97%; on human IP6K3, 100%; on human IP6K1 it was 99%.

As to `O=C(O)c1ccc2c(n1)[C@]1(CC[C@H](Oc3ncc(C(F)(F)F)cc3Cl)CC1)C(=O)N2` [Example 115, (1s,4s)-4-((3-chloro-5-(trifluoromethyl)pyridin-2-yl)oxy)-2′-oxo-1′,2′-dihydrospiro[cyclohexane-1,3′-pyrrolo[3,2-b]pyridine]-5′-carboxylic acid], the inhibition at 0.1 µM on human IP6K2 came out at 99%; on human IP6K3, 99%; on human IP6K1, 97%.

Consider `O=C(O)c1ccc2c(c1)[C@]1(CC[C@@H](Oc3ccc(Cl)cc3)CC1)C(=O)N2` [Example 114, (1r,4r)-4-(4-chlorophenoxy)-2′-oxo-1′,2′-dihydrospiro[cyclohexane-1,3′-indole]-5′-carboxylic acid], for which the inhibition at 0.1 µM at human IP6K2 was determined as 101%; at human IP6K3, 96%; at human IP6K1, 99%.

Turning to `N#Cc1ccccc1O[C@H]1CC[C@@]2(CC1)C(=O)Nc1ccc(C(=O)O)cc12` [Example 44, (1r,4r)-4-(2-cyanophenoxy)-2′-oxo-1′,2′-dihydrospiro[cyclohexane-1,3′-indole]-5′-carboxylic acid], the inhibition at 0.1 µM at human IP6K2 came out at 83%; on human IP6K3 it was 94%; at human IP6K1, 88%.

In the case of `Cc1nc(O[C@H]2CC[C@@]3(CC2)C(=O)Nc2ccc(C(=O)O)cc23)nc(C)c1Cl` [Example 39, (1r,4r)-4-((5-chloro-4,6-dimethylpyrimidin-2-yl)oxy)-2′-oxo-1′,2′-dihydrospiro[cyclohexane-1,3′-indole]-5′-carboxylic acid], the inhibition at 0.1 µM at human IP6K2 amounted to 74%; on human IP6K3 it was 95%; at human IP6K1 it was 80%.

Consider `O=C(O)c1ccc2c(c1)[C@]1(CC[C@@H](Oc3ccc(Cl)cn3)CC1)C(=O)N2` [Example 11, (1r,4r)-4-((5-chloropyridin-2-yl)oxy)-2′-oxo-1′,2′-dihydrospiro[cyclohexane-1,3′-indole]-5′-carboxylic acid], for which the inhibition at 0.1 µM at human IP6K2 turned out to be 97%; at human IP6K3 it was 102%; on human IP6K1, 100%.

`O=C(O)c1ccc2c(c1)[C@]1(CC[C@@H](Oc3ccc(Cl)cc3Cl)CC1)C(=O)N2` [Example 1, (1r,4r)-4-(2,4-dichlorophenoxy)-2′-oxo-1′,2′-dihydrospiro[cyclohexane-1,3′-indole]-5′-carboxylic acid]: the inhibition at 0.1 µM on human IP6K2 amounted to 100%; on human IP6K3 it was 99%; at human IP6K1, 100%.

As for `O=C(O)c1ccc2c(n1)[C@]1(CC[C@H](Oc3ccc(F)cc3F)CC1)C(=O)N2` [Example 84, (1s,4s)-4-(2,4-difluorophenoxy)-2′-oxo-1′,2′-dihydrospiro[cyclohexane-1,3′-pyrrolo[3,2-b]pyridine]-5′-carboxylic acid], the figures for the inhibition at 0.1 µM at human IP6K2, on human IP6K3 and on human IP6K1 were 59%, 91% and 75%, respectively.

With `Cc1cc(Cl)cc(C)c1O[C@H]1CC[C@]2(CC1)C(=O)Nc1ccc(C(=O)O)nc12` [Example 89, (1s,4s)-4-(4-chloro-2,6-dimethylphenoxy)-2′-oxo-1′,2′-dihydrospiro[cyclohexane-1,3′-pyrrolo[3,2-b]pyridine]-5′-carboxylic acid], the inhibition at 0.1 µM at human IP6K2 was 14%; at human IP6K3, 26%; on human IP6K1 it was 9%.

`O=C(O)c1ccc2c(n1)[C@]1(CC[C@@H](Oc3ccc(Cl)cc3Cl)CC1)C(=O)N2` [Example 102, (1r,4r)-4-(2,4-dichlorophenoxy)-2′-oxo-1′,2′-dihydrospiro[cyclohexane-1,3′-pyrrolo[3,2-b]pyridine]-5′-carboxylic acid]: the values for the inhibition at 0.1 µM at human IP6K2, at human IP6K3 and at human IP6K1 were 94%, 97% and 105%, respectively.

Regarding `O=C(O)c1ccc2c(c1)[C@]1(CC[C@H](Oc3ccc(Cl)cc3)CC1)C(=O)N2` [Example 108, (1s,4s)-4-(4-chlorophenoxy)-2′-oxo-1′,2′-dihydrospiro[cyclohexane-1,3′-indole]-5′-carboxylic acid], the inhibition at 0.1 µM came to 101% on human IP6K2, 99% at human IP6K3 and 97% on human IP6K1.

On to `O=C(O)c1ccc2c(c1)[C@]1(CC[C@@H](Oc3c(Cl)cc(Cl)cc3Cl)CC1)C(=O)N2` [Example 3, (1r,4r)-2′-oxo-4-(2,4,6-trichlorophenoxy)-1′,2′-dihydrospiro[cyclohexane-1,3′-indole]-5′-carboxylic acid], for which the figures for the inhibition at 0.1 µM at human IP6K2, on human IP6K3 and on human IP6K1 were 101%, 85% and 101%, respectively.

Take `O=C(O)c1ccc2c(n1)[C@]1(CC[C@@H](Oc3c(F)cc(Cl)cc3F)CC1)C(=O)N2` [Example 93, (1r,4r)-4-(4-chloro-2,6-difluorophenoxy)-2′-oxo-1′,2′-dihydrospiro[cyclohexane-1,3′-pyrrolo[3,2-b]pyridine]-5′-carboxylic acid]: the inhibition at 0.1 µM came to 96% on human IP6K2, 101% on human IP6K3 and 92% on human IP6K1.

With `O=C(O)c1ccc2c(c1)[C@]1(CC[C@@H](Oc3ncc(F)cc3F)CC1)C(=O)N2` [Example 4, (1r,4r)-4-((3,5-difluoropyridin-2-yl)oxy)-2′-oxo-1′,2′-dihydrospiro[cyclohexane-1,3′-indole]-5′-carboxylic acid], the figures for the inhibition at 0.1 µM on human IP6K2, on human IP6K3 and at human IP6K1 were 79%, 99% and 66%, respectively.

For `O=C(O)c1ccc2c(c1)[C@]1(CC[C@@H](Oc3ccc(C(F)(F)F)nc3)CC1)C(=O)N2` [Example 6, (1r,4r)-2′-oxo-4-((6-(trifluoromethyl)pyridin-3-yl)oxy)-1′,2′-dihydrospiro[cyclohexane-1,3′-indole]-5′-carboxylic acid], the inhibition at 0.1 µM was found to be 93% at human IP6K2, 97% at human IP6K3 and 96% on human IP6K1.

On to `Cc1ccc(O[C@H]2CC[C@@]3(CC2)C(=O)Nc2ccc(C(=O)O)cc23)c(C)n1` [Example 35, (1r,4r)-4-((2,6-dimethylpyridin-3-yl)oxy)-2′-oxo-1′,2′-dihydrospiro[cyclohexane-1,3′-indole]-5′-carboxylic acid], for which the inhibition at 0.1 µM at human IP6K2 turned out to be 96%; at human IP6K3 it was 98%; at human IP6K1, 82%.

For `Cc1cc(O[C@H]2CC[C@@]3(CC2)C(=O)Nc2ccc(C(=O)O)cc23)ccc1F` [Example 51, (1r,4r)-4-(4-fluoro-3-methylphenoxy)-2′-oxo-1′,2′-dihydrospiro[cyclohexane-1,3′-indole]-5′-carboxylic acid], the inhibition at 0.1 µM amounted to 97% at human IP6K2, 96% on human IP6K3 and 98% on human IP6K1.
